Measured values reported in US20010036948A1 (priority 1998, published 2001).
“And” between values parts separate entries of the source, which are not always exact repeats. Identical values can stand only once.

Experiments:
[1] = system: T/G Human Aortic Smooth Muscle Cells; assay type: cell-based; for Growth score: key: −: Lethal treatment, no cells left viable, all rounded, shriveled and dead; −/+: Some treated cells remain viable, about equal amount of clearly dead cells; +/−: Most cells remain viable, detectable number of dead cells; 1+: All cells appear viable, same density as when treated; 2+: Minimal proliferation, compared to control; 3+: Moderate proliferation compared to control; 4+: Maximal growth, unaffected by treatment
Vero cells = assay type: cell-based, monkey
[2] = system: T/G HA-VSMC cells (human aortic smooth muscle cell system); assay type: cell-based

Compound | Effect on the increase in the number of cultured cells [1] | Growth score [1] | Effect on the increase in the number of cultured cells (Vero cells) | Effect on the increase in the number of cultured cells [2]
O=C(CCNc1c2ccccc2nc2ccccc12)OCCN(CCCl)CCCl [β-alanine, N-(acridin-9-yl), 2-[bis(2-chloroethyl)amino]ethyl ester] | inhibited the increase in the number of cultured Human Aortic Smooth Muscle Cells in a dose-dependent manner with a relatively broad therapeutic window | −/+ and 1+ and +/− and 3+ and 4+ | inhibited the increase in the number | inhibited the increase in the number
NC(Cc1ccc(N(CCCl)CCCl)cc1)C(=O)O (centres unmarked) [Melphalan, melphalan, reference compound] | – | 2+ and 1+ and 3+ and 4+ | – | –
